“And” between values parts separate entries of the source, which are not always exact repeats. Identical values can stand only once. Residues, ends and D or L forms follow the SMILES beside them. *: point of attachment. Lauroyl = CCCCCCCCCCCC(=O)*
Assays:
[1] = test system: C2C12 cells; test: Real-time PCR of osteogenic genes (Runx2, Osx, Ocn); assay type: cell-based; details: 50 ng/mL BMP-2, 10 μg/mL, 2 days
Protocol: C2C12 cells were treated with 50 ng/ml BMP-2 in the presence of 10 μg/mL heparin or PAs until Day 2, and the osteogenic gene expression levels were determined by real-time PCR as described by Zhao et al. (n=4, in triplicate experiments). Briefly, total RNAs were isolated from cells using TRIzol (Invitrogen) and reverse-transcribed using iScript Reverse Transcription Supermix (Bio-Rad, Des Plaines, Ill.). PCR amplification was analyzed with iQ5 Real-Time PCR Detection System (Bio-Rad) using iQ SYBR Green Supermix (Bio-Rad) and the following primers: Runx2 types II & III (Runx2), 5′-[…]-3′(SEQ ID NO:5) and 5′-CCAAAAGAAGCTTTGCTG-3′ (SEQ ID NO:6); Osterix (Osx), 5′-[…]-3′(SEQ ID NO:7) and 5′-[…]-3′(SEQ ID NO:8); Osteocalcin (Ocn), 5′-[…]-3′(SEQ ID NO:9) and 5′-[…]-3′(SEQ ID NO:10); and Glyceraldehyde-3-phosphate dehydrogenase (GAPDH), 5′-[…]-3′(SEQ ID NO:11) and 5′-[…]-3′(SEQ ID NO:12) (IDT, Coralville, Iowa). For PCR amplification, cDNA was denatured at 94° C. for 5 min, then underwent 40 repeated cycles at 94° C. for 45 s, annealing at 55° C. for 1 min, and extension at 68° C. for 1 min, followed by 79 repeated cycles at 55° C. for 30 s for generation of a melting curve. Expression values of Runx2 II, Osx, and Ocn were normalized to the respective GAPDH levels, and all treatments were normalized to control (BMP-2 only) treatment in order to represent relative fold increase.

[2] = test system: C2C12 cells; test: Cell cytotoxicity assay (LDH release, live/dead); assay type: cell-based; details: 10 μg/mL, 5 h, without BMP-2
Protocol: C2C12 cells were treated with 10 μg/mL heparin or PAs for 5 h (Day 0), and a fraction of the media was collected to measure the presence of lactate dehydrogenase (LDH), a cytosolic enzyme only released upon cell lysis, using CytoTox 96 Non-Radioactive Cytotoxicity Assay (Promega, Madison, Wis.) (n=6). In addition, the remaining cells were stained for viable and dead cells using LIVE/DEAD Viability/Cytoxocity Kit (Invitrogen, Grand Island, N.Y.).

[3] = Critical micelle concentration by Nile red fluorescent probe assay; assay type: physicochemical; details: pH 7.4, Nile red
Protocol: To assess PA nanofiber stability, we measured the critical micelle concentration (CMC) of PAs by Nile red fluorescent probe assay (Boekhoven, A. M. Brizard, P. van Rijn, M. C. A. Stuart, R. Eelkema, J. H. van Esch, Angewandte Chemie (International ed in English) 2011, 50, 12285; herein incorporated by reference in its entirety). At pH 7.4, the supramolecular assembly of the BMP-2-binding PA was detected at above 666 nM (1.5 μg/mL), and that of the diluent PA was detected at above 1 μM (1.2 μg/mL) (FIG. 3). The binding affinities of the PAs to BMP-2 were investigated by surface plasmon resonance (SPR) using hexahistidine-tagged BMP-2 (His-BMP-2) that was immobilized on the surface via nickel (II)-nitrilotriacetic acid (Ni^2+-NTA) chelation (Knecht, D. Ricklin, A. N. Eberle, B. Ernst, J. Mol. Recognit. 2009, 22, 270; herein incorporated by reference in its entirety). As a control, the BMP-2-binding PA (1 μm, pH 7.4) was injected to a bare NTA-dextran chip, and we observed non-specific binding of the PA to the surface (FIG. 4). […]
Critical micelle concentration measurements were performed using Nile Red fluorescence spectroscopy. […] These samples were vortexed, sonicated, and were allowed to equilibrate for 24 hours before fluorescence spectra were obtained. For pH 8.5, PA samples were horn sonicated prior to the addition of Nile Red, and fluorescence spectra were obtained the same day.

[4] = test system: C2C12 cells; test: Alkaline phosphatase (ALP) stain, BMP-2-induced osteoblast differentiation; assay type: cell-based; details: 50 ng/mL BMP-2, PA or heparin 0.1-10 μg/mL, 3 days
Protocol: (§1) C2C12 pre-myoblasts were maintained and treated with BMP-2 as depicted in FIG. 5A. C2C12 cells were seeded at 2×10^4 cells/cm2 in 24-well plates in growth media (DMEM with 10% heat-inactivated FBS and 100 U/mL penicillin/streptomycin, P/S) 1 day before treatment. On the following day (Day 0), growth media was replaced with 900 μL maintenance media (growth media with 2.5% FBS) and 100 μL treatment media containing BMP-2 with heparin or PAs. Preparation of the treatment media was as follows: 2.5 μL of BMP-2 stock ([…]) was mixed with 5 μL of heparin or PA stock solutions (0.02, 0.2, or 2 mg/mL), incubated for 5 min on ice, then mixed with DMEM (100 U/mL P/S) to a final volume of 100 μL, followed by 5 min incubation on ice. For treatments with BMP-2 only, the treatment media was prepared according to the method described except without heparin or PAs. Final working concentrations were 50 ng/mL BMP-2 and a range of 0.1, 1, to 10 μg/mL heparin or PAs.
The presence of ALP was stained as a marker for osteoblast differentiation on day 3 by enzymatic labeling described by Mason and Woolston (herein incorporated by reference in its entirety). C2C12 cell layer was fixed with 4% paraformaldehyde (PFA) for 30 s, washed with PBS three times, and stained for 1 h with Naphthol AS-MX phosphate (Sigma-Aldrich, St. Louis, Mo.) and Fast Blue BB salt (Sigma-Aldrich) in 0.1M Tris-HCl at pH 8.2, followed by washing with PBS.

[5] = test system: C2C12 cells; test: Alkaline phosphatase (ALP) activity assay, BMP-2-induced osteoblast differentiation; assay type: cell-based; details: 10 μg/mL, without BMP-2, 4 days
Protocol: as §1, with “Final working concentrations were 50 ng/mL BMP-2 and a range of 0.1, 1, to 10 μg/mL heparin or PAs.” left out
ALP activity from C2C12 cell layer was measured using QUANTI-Blue ALP substrate (InvivoGen, San Diego, Calif.). […] The plate was incubated at 37° C. for 18 h and absorbance was measured at 630 nm on SpectraMax M5 Microplate Reader (Molecular Devices, Sunnyvale, Calif.). […] The absorbance values from QUANTI-Blue ALP assay was normalized by the amount of dsDNA in each sample, and the resulting values from heparin and PA treatments were normalized to control (BMP-2 only) to represent the relative fold increase (n=3, in triplicate experiments).

Compound	osteoblastic differentiation by mRNA levels relative to BMP-2 alone [1]	cytotoxicity [2]	critical micelle concentration (supramolecular assembly detected at above) [3]	number of ALP-positive cells [4]	ALP expression without BMP-2 [5]
CCCCCCCCCCCCCCCC(=O)N[C@H](C(=O)N[C@H](C(=O)N[C@H](C(=O)N[C@@H](C)C(=O)N[C@@H](C)C(=O)N[C@@H](C)C(=O)N[C@@H](CCC(=O)O)C(=O)N[C@@H](CCC(=O)O)C(=O)N[C@@H](CCC(=O)O)C(=O)O)C(C)C)C(C)C)C(C)C [diluent PA, C16-V3A3E3-COOH] (HELM PEPTIDE1{[CCCCCCCCCCCCCCCC(=O)[*:2]].V.V.V.A.A.A.E.E.E}$$$$V2.0)	enhanced osteoblastic differentiation	did not induce cytotoxicity	above 1 μM and > 1.2 μg/mL	increased number of ALP-positive cells	–
heparin sodium [reference compound]	enhanced osteoblastic differentiation	did not induce cytotoxicity	–	directly proportional association of the number of ALP-positive cells with heparin concentrations up to 10 μg/mL	did not promote ALP expression
CCCCCCCCCCCC(=O)NCCCC[C@H](NC(=O)[C@@H](NC(=O)[C@@H](NC(=O)[C@@H](NC(=O)[C@H](C)NC(=O)[C@H](C)NC(=O)[C@H](C)NC(=O)[C@H](CCC(=O)O)NC(=O)[C@H](CCC(=O)O)NC(=O)[C@H](CCC(=O)O)NC(=O)[C@H](CO)NC(=O)CNC(=O)CNC(=O)CNC(=O)[C@H](Cc1ccc(O)cc1)NC(=O)[C@@H]1CCCN1C(=O)[C@@H](NC(=O)[C@H](Cc1c[nH]cn1)NC(=O)[C@@H]1CCCN1C(=O)[C@H](CO)NC(=O)[C@@H](N)[C@@H](C)O)C(C)C)C(C)C)C(C)C)C(C)C)C(N)=O [BMP-2-binding PA, C12-(K)V3A3E3-SGGGYPVHPST-NH2] (H-TSPHVPYGGGSEEEAAAVVVK(Lauroyl)-NH2; N-terminus and C-terminus assumed)	enhanced osteoblastic differentiation	did not induce cytotoxicity	above 666 nM and > 1.5 μg/mL	slight increase in the number of ALP-positive cells	–

From patent US11066444B2, “BMP-2-binding peptide amphiphile nanofibers” (Northwestern University, priority 2014, dated 2021)
